Here are results for 18 compounds from article PMC7770057 (Journal of medicinal chemistry, 2020).

Data set [1] has as its system HT-29 cells. The experiment in a line: Antiproliferation. The conditions noted are these: for antiproliferation potency compared to compound 28: HT-29 cells; for antiproliferation potency improvement over comparator: HT-29, 3 vs 14, 24 vs 3, 25 vs 22, 26 vs 3, 27 vs 23; for GI50: Homo sapiens, HT-29, 72 h, read-out: HT-29 GI50.
Data set [2] in a line: In vivo mouse PK study, single IP injection. Further details: species or system male Swiss Albino mice. As to conditions: mice, single IP 50 mg/kg; no clinical signs or adverse effects observed.
For data set [3], the system named is MEK1/2. Description: MEK1/2 protein levels in cells by Western blot. As to conditions: HT-29 cells, 0.3, 1 and 3 μM, 24 h. On the technique in general: A western blot detects proteins with antibodies after separation by electrophoresis.

For the compound `O=C1CCC(N2C(=O)c3cccc(NCCCCCCCNCCCONC(=O)c4ccc(F)c(F)c4Nc4ccc(I)cc4F)c3C2=O)C(=O)N1` (centres unmarked) [Compound 33, N-(3-((7-((2-(2,6-Dioxopiperidin-3-yl)-1,3-dioxoisoindolin-4-yl)-amino)heptyl)amino)propoxy)-3,4-difluoro-2-((2-fluoro-4-iodophenyl)amino)benzamide], in data set [1], the “antiproliferation potency compared to compound 28” value is “did not improve the antiproliferation potency”.
On to `Cc1ncsc1-c1ccc([C@H](C)NC(=O)[C@@H]2C[C@@H](O)CN2C(=O)[C@@H](NC(=O)CCCCCCCCCNCCCCONC(=O)c2ccc(F)c(F)c2Nc2ccc(I)cc2F)C(C)(C)C)cc1` [Compound 25, (2S,4R)-1-((S)-20-(tert-Butyl)-1-(3,4-difluoro-2-((2-fluoro-4-iodophenyl)amino)phenyl)-1,18-dioxo-3-oxa-2,8,19-triazahenicosan-21-oyl)-4-hydroxy-N-((S)-1-(4-(4-methylthiazol-5-yl)phenyl)ethyl)pyrrolidine-2-carboxamide], for which, in data set [1], the “antiproliferation potency improvement over comparator” value was “about 4 fold”.
As to `O=C1CCC(N2C(=O)c3cccc(NCCCCCCNCCCONC(=O)c4ccc(F)c(F)c4Nc4ccc(I)cc4F)c3C2=O)C(=O)N1` (centres unmarked) [Compound 32, N-(3-((6-((2-(2,6-Dioxopiperidin-3-yl)-1,3-dioxoisoindolin-4-yl)-amino)hexyl)amino)propoxy)-3,4-difluoro-2-((2-fluoro-4-iodophenyl)amino)benzamide], in data set [1], the “antiproliferation potency compared to compound 28” value is “did not improve the antiproliferation potency”.
Consider `Cc1ncsc1-c1ccc([C@H](C)NC(=O)[C@@H]2C[C@@H](O)CN2C(=O)[C@@H](NC(=O)CCCCCCCCCCN(C)CCCONC(=O)c2ccc(F)c(F)c2Nc2ccc(I)cc2F)C(C)(C)C)cc1` [Compound 24, (2S,4R)-1-((S)-20-(tert-Butyl)-1-(3,4-difluoro-2-((2-fluoro-4-iodophenyl)amino)phenyl)-7-methyl-1,18-dioxo-3-oxa-2,7,19-triazahenicosan-21-oyl)-4-hydroxy-N-((S)-1-(4-(4-methylthiazol-5-yl)phenyl)ethyl)pyrrolidine-2-carboxamide], for which, in data set [2], the “tolerability” value is listed as “very well tolerated”.
One may read the GI50 as the concentration at which growth is held to half of that of the control. As to `O=C1CCC(N2C(=O)c3ccc(NCCOCCOCCOCCOCCNCCCONC(=O)c4ccc(F)c(F)c4Nc4ccc(I)cc4F)cc3C2=O)C(=O)N1` (centres unmarked) [Compound 49, N-((1-((2-(2,6-Dioxopiperidin-3-yl)-1,3-dioxoisoindolin-5-yl)amino)-3,6,9,12-tetraoxa-15-azaoctadecan-18-yl)oxy)-3,4-di-fluoro-2-((2-fluoro-4-iodophenyl)amino)benzamide], the GI50 in data set [1] lay in the range of 300 to 500 nM. Moreover, the “MEK1/2 degradation (Western blot, words)” value in data set [3] was “significantly degraded both MEK1 and MEK2 proteins”.
For `O=C1CCC(N2C(=O)c3ccc(NCCCCCCCNCCCONC(=O)c4ccc(F)c(F)c4Nc4ccc(I)cc4F)cc3C2=O)C(=O)N1` (centres unmarked) [Compound 44, N-(3-((7-((2-(2,6-Dioxopiperidin-3-yl)-1,3-dioxoisoindolin-5-yl)amino)heptyl)amino)propoxy)-3,4-difluoro-2-((2-fluoro-4-iodophenyl)amino)benzamide], in data set [1], the GI50 lay in the range of 300 to 500 nM. In addition, the “MEK1/2 degradation (Western blot, words)” value in data set [3] was “significantly degraded both MEK1 and MEK2 proteins”.
For `O=C1CCC(N2C(=O)c3cccc(NCCCNCCCONC(=O)c4ccc(F)c(F)c4Nc4ccc(I)cc4F)c3C2=O)C(=O)N1` (centres unmarked) [Compound 29, N-(3-((3-((2-(2,6-Dioxopiperidin-3-yl)-1,3-dioxoisoindolin-4-yl)-amino)propyl)amino)propoxy)-3,4-difluoro-2-((2-fluoro-4-iodophenyl)amino)benzamide], the “antiproliferation potency compared to compound 28” value in data set [1] is listed as “did not improve the antiproliferation potency”.
With `O=C1CCC(N2C(=O)c3ccc(NCCCCCNCCCONC(=O)c4ccc(F)c(F)c4Nc4ccc(I)cc4F)cc3C2=O)C(=O)N1` (centres unmarked) [Compound 42, N-(3-((5-((2-(2,6-Dioxopiperidin-3-yl)-1,3-dioxoisoindolin-5-yl)amino)pentyl)amino)propoxy)-3,4-difluoro-2-((2-fluoro-4-iodophenyl)amino)benzamide], the 50% growth inhibitory concentration (GI50) in data set [1] is 300 to 500 nM. The “MEK1/2 degradation (Western blot, words)” value in data set [3] is “significant selectivity at degrading MEK2 over MEK1”.
Consider `Cc1ncsc1-c1ccc(CNC(=O)[C@@H]2C[C@@H](O)CN2C(=O)[C@@H](NC(=O)CCCCCCCNCCCONC(=O)c2ccc(F)c(F)c2Nc2ccc(I)cc2F)C(C)(C)C)cc1` [Compound 11, (2S,4R)-1-((S)-17-(tert-Butyl)-1-(3,4-difluoro-2-((2-fluoro-4-iodophenyl)amino)phenyl)-1,15-dioxo-3-oxa-2,7,16-triazaoctadecan-18-oyl)-4-hydroxy-N-(4-(4-methylthiazol-5-yl)benzyl)pyrrolidine-2-carboxamide], for which the “MEK1/2 degradation (Western blot, words)” value in data set [3] is “effectively degraded MEK1 and MEK2 proteins”.
Turning to `Cc1ncsc1-c1ccc([C@H](C)NC(=O)[C@@H]2C[C@@H](O)CN2C(=O)[C@@H](NC(=O)CCCCCCCCCCNCCCCONC(=O)c2ccc(F)c(F)c2Nc2ccc(I)cc2F)C(C)(C)C)cc1` [Compound 26, (2S,4R)-1-((S)-21-(tert-Butyl)-1-(3,4-difluoro-2-((2-fluoro-4-iodophenyl)amino)phenyl)-1,19-dioxo-3-oxa-2,8,20-triazadocosan-22-oyl)-4-hydroxy-N-((S)-1-(4-(4-methylthiazol-5-yl)phenyl)ethyl)pyrrolidine-2-carboxamide], the “antiproliferation potency improvement over comparator” value in data set [1] is on record as about 3 fold.
Turning to `O=C1CCC(N2C(=O)c3cccc(NCCNCCCONC(=O)c4ccc(F)c(F)c4Nc4ccc(I)cc4F)c3C2=O)C(=O)N1` (centres unmarked) [Compound 28, N-(3-((2-((2-(2,6-Dioxopiperidin-3-yl)-1,3-dioxoisoindolin-4-yl)-amino)ethyl)amino)propoxy)-3,4-difluoro-2-((2-fluoro-4-iodophenyl)amino)benzamide], the concentration for 50% growth inhibition (GI50) in data set [1] was 300 to 500 nM. Further, the “MEK1/2 degradation (Western blot, words)” value in data set [3] is “did not show obvious MEK1/2 degradation”.
For the compound `O=C1CCC(N2C(=O)c3ccc(NCCCCCCCCNCCCONC(=O)c4ccc(F)c(F)c4Nc4ccc(I)cc4F)cc3C2=O)C(=O)N1` (centres unmarked) [Compound 45, N-(3-((8-((2-(2,6-Dioxopiperidin-3-yl)-1,3-dioxoisoindolin-5-yl)amino)octyl)amino)propoxy)-3,4-difluoro-2-((2-fluoro-4-iodophenyl)amino)benzamide], the “MEK1/2 degradation (Western blot, words)” value in data set [3] is “significantly degraded both MEK1 and MEK2 proteins”.
In the case of `O=C1CCC(N2C(=O)c3cccc(NCCCCCCCCNCCCONC(=O)c4ccc(F)c(F)c4Nc4ccc(I)cc4F)c3C2=O)C(=O)N1` (centres unmarked) [Compound 34, N-(3-((8-((2-(2,6-Dioxopiperidin-3-yl)-1,3-dioxoisoindolin-4-yl)-amino)octyl)amino)propoxy)-3,4-difluoro-2-((2-fluoro-4-iodophenyl)amino)benzamide], the “antiproliferation potency compared to compound 28” value in data set [1] is listed as “did not improve the antiproliferation potency”.
For `Cc1ncsc1-c1ccc(CNC(=O)[C@@H]2C[C@@H](O)CN2C(=O)[C@@H](NC(=O)CCCCCCCCCNCCCONC(=O)c2ccc(F)c(F)c2Nc2ccc(I)cc2F)C(C)(C)C)cc1` [Compound 13, (2S,4R)-1-((S)-19-(tert-Butyl)-1-(3,4-difluoro-2-((2-fluoro-4-iodophenyl)amino)phenyl)-1,17-dioxo-3-oxa-2,7,18-triazaicosan-20-oyl)-4-hydroxy-N-(4-(4-methylthiazol-5-yl)benzyl)pyrrolidine-2-carboxamide], the “MEK1/2 degradation (Western blot, words)” value in data set [3] was “effectively degraded MEK1 and MEK2 proteins”.
Turning to `O=C1CCC(N2C(=O)c3ccc(NCCCNCCCONC(=O)c4ccc(F)c(F)c4Nc4ccc(I)cc4F)cc3C2=O)C(=O)N1` (centres unmarked) [Compound 40, N-(3-((3-((2-(2,6-Dioxopiperidin-3-yl)-1,3-dioxoisoindolin-5-yl)amino)propyl)amino)propoxy)-3,4-difluoro-2-((2-fluoro-4-iodophenyl)amino)benzamide], in data set [1], the GI50 lay within 300 to 500 nM. For the same compound, in data set [3], the “MEK1/2 degradation (Western blot, words)” value is “did not show obvious MEK1/2 degradation”.
For `Cc1ncsc1-c1ccc([C@H](C)NC(=O)[C@@H]2C[C@@H](O)CN2C(=O)[C@@H](NC(=O)CCCCCCCCCCNCCCONC(=O)c2ccc(F)c(F)c2Nc2ccc(I)cc2F)C(C)(C)C)cc1` [Compound 3], the “antiproliferation potency improvement over comparator” value in data set [1] is recorded as 3 fold.
On to `O=C1CCC(N2C(=O)c3cccc(NCCCCNCCCONC(=O)c4ccc(F)c(F)c4Nc4ccc(I)cc4F)c3C2=O)C(=O)N1` (centres unmarked) [Compound 30, N-(3-((4-((2-(2,6-Dioxopiperidin-3-yl)-1,3-dioxoisoindolin-4-yl)-amino)butyl)amino)propoxy)-3,4-difluoro-2-((2-fluoro-4-iodophenyl)amino)benzamide], for which the “antiproliferation potency compared to compound 28” value in data set [1] was “did not improve the antiproliferation potency”.
As to `O=C1CCC(N2C(=O)c3cccc(NCCCCCNCCCONC(=O)c4ccc(F)c(F)c4Nc4ccc(I)cc4F)c3C2=O)C(=O)N1` (centres unmarked) [Compound 31, N-(3-((5-((2-(2,6-Dioxopiperidin-3-yl)-1,3-dioxoisoindolin-4-yl)-amino)pentyl)amino)propoxy)-3,4-difluoro-2-((2-fluoro-4-iodophenyl)amino)benzamide], the “antiproliferation potency compared to compound 28” value in data set [1] was “did not improve the antiproliferation potency”.
